Consider four compounds from patent publication US20110300073A1, “18F-LABELLED THREE-AND FOUR-CARBON ACIDS FOR PET IMAGING” (priority 2008, published 2011).

The test system of data set [1] is prostate cancer CWR22RV1 xenografts. Put plainly: MicroPET imaging of nude mice with CWR22RV1 xenografts. It is filed as in vivo. How it is done:
Small animal PET imaging was performed on MicroPET, to evaluate the potential of 2-[^18F]-fluoropropanoic acid (2-[^18F]-FPA), and 2-[^18F]-fluorobutanoic acid (2-[^18F]-FBA) as tumor imaging agents in mice with prostate cancer CWR22RV1 xenografts. […] In addition to uptake in the tumor, there is high uptake in heart and brain.
The mice were imaged using MicroPET first with [^18F]-FDG after 4 hour fasting 1 hour post injection. The activity was allowed to decay for 20 hrs and the same mice were imaged with 2-[^18F]-FPA 1 hour post injection. In case of 2-[^18F]-FPA, the animals were not fasted. […] 2-[^18F]-FPA has high uptake in brain like [^18F]
(§1) All animal experiments were done in accordance with protocols approved by the Institutional Animal Care and Use Committee of Memorial Sloan-Kettering Cancer Center and followed National Institutes of Health guidelines for animal welfare. Subcutaneous tumors were produced in nude mice (20-25 g; Charles River Laboratories) by subcutaneous injection of 5×10^6 tumor cells in 200 μl consisting of 100 μl of cell culture medium and 100 μl of Matrigel under 2% Isofluorane anesthesia on the right forelimb of mice.
Imaging was performed by use of a dedicated small-animal PET scanner (Focus 120 microPET; Siemens Medical Solutions USA, Inc.). Mice were maintained under 2% isoflurane anesthesia in oxygen at 2 L/min during the entire scanning period. Imaging was performed one hour post administration of 11.1 MBq (300 μCi) of either 2-[^18F]-FPA or [^18F]-FDG via the lateral tail vein. An energy window of 350-700 keV and a coincidence timing window of 6 ns were used. The image data were corrected for non-uniformity of the scanner response, dead time count losses, and physical decay to the time of injection. No correction was applied for attenuation, scatter, or partial-volume averaging. The measured reconstructed spatial resolution of the Focus 120 scanner is ˜1.6 mm full width at half maximum at the center of the field of view.

For the next data set, the system named is CWR22RV1 xenografts. Put plainly: single isotope [18F] biodistribution study in mice with CWR22rv1 tumors. It is filed as in vivo. The settings on record: for tumor to organ ratio, blood / tumor to organ ratio, bone / tumor to organ ratio, heart / tumor to organ ratio, kidneys / tumor to organ ratio, large intestine / tumor to organ ratio, liver / tumor to organ ratio, lungs / tumor to organ ratio, muscle / tumor to organ ratio, small intestine / tumor to organ ratio, spine / tumor to organ ratio, spleen / tumor to organ ratio, stomach: tail vein, nude mice with CWR22RV1 xenografts. How it is done:
as §1
For single isotope ([^18F]) biodistribution studies, mice with CWR22rv1 tumors were injected intravenously in the tail vein with 3.7-5.5 MBq (100-150 μCi) of [^18F]-FPA in 200 μL of saline. Radioactivity in the syringe before and after administration was measured in an energy-calibrated dose calibrator (CRC-15R; Capintec) and exact quantity received by each animal was determined. The animals were euthanized at different time points and then the organs were harvested. [^18F] radioactivity was measured in a calibrated gamma counter (Perkin Elmer 1480 Wizard 3 Auto Gamma counter, Waltham, Mass.) using 400-600 keV energy window and decay correction. The counts were converted into activity and % ID/g was calculated by dividing with decay corrected injected activity and weight of the organ. […] In addition to tumor, there is high uptake in blood and heart. The tumor to organ ratio of 2-[^18F]-FPA at 1, 2, 3 and 4 hour post injection is: […]

The subject of data set [2] is rats. The following applies: Dreisbach's Handbook of Poisoning; cited from earlier work.
In data set [3] the test system is rats. Description: toxicity in rats (oral LD50 / single dose). The following applies: given at 212 mg/kg to rats.
Where [4] appears, read: summary over 1-4 hour post injection.

Turning to `CC([18F])C(=O)O` (centres unmarked) [2-[^18F]-FPA, 2-[^18F]-fluoropropanoic acid], in data set [1] (1 hour post injection), the “uptake in brain (MicroPET)” value was “high uptake”. In addition, in data set [1] (1 hour post injection, FIG. 1), the “accumulation in the kidneys of mice, unlike [18F]-FDG” value was “much lower accumulation”. For the same compound, the “tumor visualization as compared to [18F]-FDG” value in data set [1] (1 hour post injection, same mice, FIG. 1) is given as “much more clearly”. In data set [1] (one hour post administration), the “uptake in heart (MicroPET)” value is recorded as “high uptake”. Also, the “tumor visualization in MicroPET image” value in data set [1] (one hour post administration, transaxial and coronal slices, 5 minute acquisition time) is given as “easily visualized”. Moreover, in the data set with CWR22RV1 xenografts (1, 2, 3 and 4 hour post administration via tail vein), the “biodistribution during the time of study” value is given as “remains similar”. Moreover, in the data set with CWR22RV1 xenografts (1-4 hour post administration), the “accumulation of tracer in tumor” value is given as “considerable accumulation”, the uptake in blood result is on record as “high uptake” and the “uptake in heart (biodistribution)” value is given as “high uptake”. Besides, in the data set with CWR22RV1 xenografts (1 hour post injection), the “tumor to organ ratio, blood” value worked out at 1.05; the “tumor to organ ratio, bone” value stood at 2.79; the “tumor to organ ratio, heart” value is reported as 0.90; the “tumor to organ ratio, kidneys” value stood at 1.43. Also, in the data set with CWR22RV1 xenografts (1 hour post injection), the “tumor to organ ratio, large intestine” value worked out at 1.39; the “tumor to organ ratio, liver” value stood at 1.35; the “tumor to organ ratio, lungs” value is listed as 1.22; the “tumor to organ ratio, muscle” value was determined as 1.79. Besides, in the data set with CWR22RV1 xenografts (1 hour post injection), the “tumor to organ ratio, small intestine” value was 1.26; the “tumor to organ ratio, spine” value was 1.76; the “tumor to organ ratio, spleen” value was 1.40; the “tumor to organ ratio, stomach” value was found to be 2.50. Moreover, in the data set with CWR22RV1 xenografts (2 hours post injection), the “tumor to organ ratio, blood” value turned out to be 1.03; the “tumor to organ ratio, bone” value amounted to 2.14; the “tumor to organ ratio, heart” value amounted to 0.94; the “tumor to organ ratio, kidneys” value was determined as 1.57. In the data set on CWR22RV1 xenografts (2 hours post injection), the “tumor to organ ratio, large intestine” value is given as 1.49; the “tumor to organ ratio, liver” value turned out to be 1.24; the “tumor to organ ratio, lungs” value worked out at 1.17; the “tumor to organ ratio, muscle” value came out at 1.79. Also, in the data set with CWR22RV1 xenografts (2 hours post injection), the “tumor to organ ratio, small intestine” value was found to be 1.57; the “tumor to organ ratio, spine” value was found to be 1.61; the “tumor to organ ratio, spleen” value is 1.56; the “tumor to organ ratio, stomach” value was determined as 3.60. Besides, in the data set with CWR22RV1 xenografts (3 hours post injection), the “tumor to organ ratio, blood” value worked out at 1.04; the “tumor to organ ratio, bone” value is 2.58; the “tumor to organ ratio, heart” value was 1.07; the “tumor to organ ratio, kidneys” value is on record as 1.60. In the data set on CWR22RV1 xenografts (3 hours post injection), the “tumor to organ ratio, large intestine” value turned out to be 1.51; the “tumor to organ ratio, liver” value is 1.33; the “tumor to organ ratio, lungs” value is given as 1.30; the “tumor to organ ratio, muscle” value came out at 1.76. Moreover, in the data set with CWR22RV1 xenografts (3 hours post injection), the “tumor to organ ratio, small intestine” value is 1.58; the “tumor to organ ratio, spine” value was determined as 1.57; the “tumor to organ ratio, spleen” value was 1.62; the “tumor to organ ratio, stomach” value is given as 4.48. In addition, in the data set on CWR22RV1 xenografts (4 hours post injection), the “tumor to organ ratio, blood” value is given as 1.06; the “tumor to organ ratio, bone” value is reported as 1.90; the “tumor to organ ratio, heart” value came out at 1.00; the “tumor to organ ratio, kidneys” value stood at 1.29. In addition, in the data set with CWR22RV1 xenografts (4 hours post injection), the “tumor to organ ratio, large intestine” value is recorded as 1.87; the “tumor to organ ratio, liver” value is given as 1.41; the “tumor to organ ratio, lungs” value was 1.32; the “tumor to organ ratio, muscle” value was found to be 1.85. For the same compound, in the data set on CWR22RV1 xenografts (4 hours post injection), the “tumor to organ ratio, small intestine” value came out at 1.44; the “tumor to organ ratio, spine” value is listed as 1.44; the “tumor to organ ratio, spleen” value worked out at 1.56; the “tumor to organ ratio, stomach” value is given as 3.54. In the data set on CWR22RV1 xenografts (setting [4]), the “tumor to organ ratio, heart (overall)” value is recorded as “around 0.95” and the “tumor to organ ratio, most of the organs except heart” value is “greater than 1”.
On to `OC[C@H]1OC(O)[C@H]([18F])[C@@H](O)[C@@H]1O` (some centres unmarked) [[^18F]-FDG, [^18F]-fluorodeoxyglucose, reference compound], for which the “uptake in brain (MicroPET)” value in data set [1] (1 hour post injection) is reported as “high uptake”.
`O=C(O)CF` [2-fluoroacetic acid]: the “oral LD50 in rats” value in the data set with rats [2] is given as 0.22 mg/kg.
Take `CC(F)C(=O)O` (centres unmarked) [2-fluoropropanoic acid]: in the data set on rats [3], the toxicity in rats entry is given as “no toxicity was observed”.
